Measured values: ChEMBL document CHEMBL5715260, “Selectivity Literature for EUbOPEN Chemogenomic Library” (2024)

How the values were obtained:
Design in all cases: recommended concentration 1 uM
[1] = molecular target: T1, Hepatocyte nuclear factor 4-alpha (Homo sapiens) (UniProt P41235); experiment: Selectivity interaction (Reporter gene assay) EUB0000563a HNF4A
T1 sequence (whole entry): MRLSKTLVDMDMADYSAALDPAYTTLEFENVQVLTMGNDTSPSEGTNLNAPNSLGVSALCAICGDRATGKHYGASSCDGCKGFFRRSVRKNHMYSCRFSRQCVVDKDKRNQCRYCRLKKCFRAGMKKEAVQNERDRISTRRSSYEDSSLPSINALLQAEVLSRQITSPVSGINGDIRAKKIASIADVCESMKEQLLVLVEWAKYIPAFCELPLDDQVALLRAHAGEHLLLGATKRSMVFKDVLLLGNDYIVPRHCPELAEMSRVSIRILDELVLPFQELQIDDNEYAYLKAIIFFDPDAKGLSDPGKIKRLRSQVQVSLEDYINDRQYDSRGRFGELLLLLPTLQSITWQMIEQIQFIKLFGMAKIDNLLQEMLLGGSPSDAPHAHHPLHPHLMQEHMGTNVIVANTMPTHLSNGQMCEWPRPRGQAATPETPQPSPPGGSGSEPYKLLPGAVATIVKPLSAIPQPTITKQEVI

[2] = molecular target: T2, Retinoic acid receptor RXR-alpha (Homo sapiens) (UniProt P19793); experiment: Selectivity interaction (Reporter gene assay) EUB0000563a RXRA; details: reference bexarotene 1 uM, Selectivity number of off-targets 0.0, Selectivity number of targets 1.0, Source Knowledge inhouse
T2 sequence (whole entry): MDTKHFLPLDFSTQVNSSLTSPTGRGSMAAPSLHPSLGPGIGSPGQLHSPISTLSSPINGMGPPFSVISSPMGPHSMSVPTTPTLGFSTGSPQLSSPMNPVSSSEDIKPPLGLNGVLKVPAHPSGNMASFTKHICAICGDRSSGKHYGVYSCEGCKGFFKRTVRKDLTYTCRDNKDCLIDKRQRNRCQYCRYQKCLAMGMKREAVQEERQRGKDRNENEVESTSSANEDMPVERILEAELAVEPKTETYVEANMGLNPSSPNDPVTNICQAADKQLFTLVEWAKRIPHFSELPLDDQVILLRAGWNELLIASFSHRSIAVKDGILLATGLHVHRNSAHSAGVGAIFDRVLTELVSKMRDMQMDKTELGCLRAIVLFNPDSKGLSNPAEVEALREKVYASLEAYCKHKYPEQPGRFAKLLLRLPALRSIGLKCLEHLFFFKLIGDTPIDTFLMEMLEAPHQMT

[3] = molecular target: T3, Nuclear receptor subfamily 2 group C member 1 (Homo sapiens) (UniProt P13056); experiment: Selectivity interaction (Reporter gene assay) EUB0000563a NR2C1
T3 sequence (whole entry): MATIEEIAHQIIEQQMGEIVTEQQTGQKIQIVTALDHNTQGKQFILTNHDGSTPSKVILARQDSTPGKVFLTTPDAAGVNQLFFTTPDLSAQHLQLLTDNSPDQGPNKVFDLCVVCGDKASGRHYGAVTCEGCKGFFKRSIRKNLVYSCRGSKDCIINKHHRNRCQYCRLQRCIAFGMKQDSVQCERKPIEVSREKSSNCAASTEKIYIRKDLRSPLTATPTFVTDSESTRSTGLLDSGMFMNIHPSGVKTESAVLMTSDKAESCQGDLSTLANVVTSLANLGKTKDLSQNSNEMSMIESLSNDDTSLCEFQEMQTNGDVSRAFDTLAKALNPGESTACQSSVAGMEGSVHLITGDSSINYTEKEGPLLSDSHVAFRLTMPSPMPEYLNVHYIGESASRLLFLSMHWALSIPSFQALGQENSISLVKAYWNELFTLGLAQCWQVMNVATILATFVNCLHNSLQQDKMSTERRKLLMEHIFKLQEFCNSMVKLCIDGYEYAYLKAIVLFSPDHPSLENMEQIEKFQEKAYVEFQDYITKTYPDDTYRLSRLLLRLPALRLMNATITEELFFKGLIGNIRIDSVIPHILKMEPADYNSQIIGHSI

[4] = molecular target: Steroidogenic factor 1 (Homo sapiens) (UniProt Q13285); experiment: Selectivity interaction (Reporter gene assay) EUB0000563a NR5A1
Sequence of Steroidogenic factor 1 (Homo sapiens) (Q13285 whole entry): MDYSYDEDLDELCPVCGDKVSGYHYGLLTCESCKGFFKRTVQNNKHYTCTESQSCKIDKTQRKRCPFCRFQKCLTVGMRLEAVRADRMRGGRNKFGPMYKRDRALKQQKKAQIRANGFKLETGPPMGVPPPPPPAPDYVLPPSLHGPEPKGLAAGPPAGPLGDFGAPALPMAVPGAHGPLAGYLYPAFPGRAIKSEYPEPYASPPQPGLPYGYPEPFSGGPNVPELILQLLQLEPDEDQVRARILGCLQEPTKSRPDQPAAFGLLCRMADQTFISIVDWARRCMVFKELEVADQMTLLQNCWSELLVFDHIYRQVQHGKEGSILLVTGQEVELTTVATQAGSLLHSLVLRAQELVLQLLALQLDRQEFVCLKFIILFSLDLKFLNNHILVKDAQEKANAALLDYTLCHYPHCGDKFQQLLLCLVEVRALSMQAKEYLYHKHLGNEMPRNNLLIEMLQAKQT

[5] = molecular target: Nuclear receptor subfamily 2 group E member 1 (Homo sapiens) (UniProt Q9Y466); experiment: Selectivity interaction (Reporter gene assay) EUB0000563a NR2E1
Sequence of Nuclear receptor subfamily 2 group E member 1 (Homo sapiens) (Q9Y466 whole entry): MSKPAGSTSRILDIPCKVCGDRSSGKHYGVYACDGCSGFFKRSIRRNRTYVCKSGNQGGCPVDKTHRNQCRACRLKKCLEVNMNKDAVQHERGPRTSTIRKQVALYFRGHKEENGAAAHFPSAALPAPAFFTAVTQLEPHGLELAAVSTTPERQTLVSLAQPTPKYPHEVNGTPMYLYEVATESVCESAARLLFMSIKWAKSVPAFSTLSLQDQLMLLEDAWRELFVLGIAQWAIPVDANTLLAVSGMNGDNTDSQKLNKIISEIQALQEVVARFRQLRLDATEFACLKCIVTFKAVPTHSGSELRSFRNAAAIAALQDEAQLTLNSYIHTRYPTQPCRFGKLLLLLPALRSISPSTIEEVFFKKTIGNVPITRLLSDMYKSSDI

[6] = molecular target: Nuclear receptor subfamily 4immunitygroup A member 1 (Homo sapiens) (UniProt P22736); experiment: Selectivity interaction (Reporter gene assay) EUB0000563a NR4A1
Sequence of Nuclear receptor subfamily 4immunitygroup A member 1 (Homo sapiens) (P22736 whole entry): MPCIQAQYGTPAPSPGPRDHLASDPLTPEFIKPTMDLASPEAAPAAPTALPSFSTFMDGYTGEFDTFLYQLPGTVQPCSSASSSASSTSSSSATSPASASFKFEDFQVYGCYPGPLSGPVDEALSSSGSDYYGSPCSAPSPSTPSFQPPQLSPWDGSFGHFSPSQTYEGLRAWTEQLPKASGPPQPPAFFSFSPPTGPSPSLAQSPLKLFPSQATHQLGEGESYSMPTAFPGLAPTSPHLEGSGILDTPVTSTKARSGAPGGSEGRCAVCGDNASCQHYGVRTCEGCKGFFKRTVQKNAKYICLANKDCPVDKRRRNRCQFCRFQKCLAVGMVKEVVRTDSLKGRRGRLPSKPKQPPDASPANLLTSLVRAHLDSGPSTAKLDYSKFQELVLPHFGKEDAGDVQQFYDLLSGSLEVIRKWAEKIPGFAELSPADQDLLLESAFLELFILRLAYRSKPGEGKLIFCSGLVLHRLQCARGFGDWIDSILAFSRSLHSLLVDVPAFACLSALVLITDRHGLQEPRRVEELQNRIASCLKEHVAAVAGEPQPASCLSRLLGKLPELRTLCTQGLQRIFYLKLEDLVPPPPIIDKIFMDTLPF

[7] = molecular target: T4, Alpha trans-inducing protein (Human alphaherpesvirus 1) (UniProt A0A5J6DW59); experiment: Selectivity interaction (Reporter gene assay) EUB0000563a UL48
T4 sequence (A0A5J6DW59 as listed by the source): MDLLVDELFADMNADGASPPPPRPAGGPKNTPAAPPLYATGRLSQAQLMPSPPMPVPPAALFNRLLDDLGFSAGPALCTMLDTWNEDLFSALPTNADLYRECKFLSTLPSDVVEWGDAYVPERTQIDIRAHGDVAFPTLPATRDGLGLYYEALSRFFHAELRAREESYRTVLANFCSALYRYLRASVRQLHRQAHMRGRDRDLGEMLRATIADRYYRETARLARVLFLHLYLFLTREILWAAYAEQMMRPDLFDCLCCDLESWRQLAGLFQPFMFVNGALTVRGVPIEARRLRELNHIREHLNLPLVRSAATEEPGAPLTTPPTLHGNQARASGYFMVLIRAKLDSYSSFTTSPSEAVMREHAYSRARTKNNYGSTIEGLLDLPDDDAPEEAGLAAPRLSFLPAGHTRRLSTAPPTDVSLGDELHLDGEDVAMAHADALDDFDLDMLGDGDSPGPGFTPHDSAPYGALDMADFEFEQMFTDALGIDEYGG

[8] = molecular target: T4, Alpha trans-inducing protein (Human alphaherpesvirus 1); experiment: Selectivity interaction (Reporter gene assay) EUB0000566a UL48
[9] = molecular target: Steroidogenic factor 1 (Homo sapiens) (UniProt Q13285); experiment: Selectivity interaction (Reporter gene assay) EUB0000566a NR5A1
[10] = molecular target: T1, Hepatocyte nuclear factor 4-alpha (Homo sapiens); experiment: Selectivity interaction (Reporter gene assay) EUB0000566a HNF4A
[11] = molecular target: T2, Retinoic acid receptor RXR-alpha (Homo sapiens); experiment: Selectivity interaction (Reporter gene assay) EUB0000566a RXRA
[12] = molecular target: Nuclear receptor subfamily 2 group E member 1 (Homo sapiens) (UniProt Q9Y466); experiment: Selectivity interaction (Reporter gene assay) EUB0000566a NR2E1
[13] = molecular target: T3, Nuclear receptor subfamily 2 group C member 1 (Homo sapiens); experiment: Selectivity interaction (Reporter gene assay) EUB0000566a NR2C1
[14] = molecular target: Nuclear receptor subfamily 4immunitygroup A member 1 (Homo sapiens) (UniProt P22736); experiment: Selectivity interaction (Reporter gene assay) EUB0000566a NR4A1
[15] = molecular target: T3, Nuclear receptor subfamily 2 group C member 1 (Homo sapiens); experiment: Selectivity interaction (Reporter gene assay) EUB0000565a NR2C1
[16] = molecular target: Retinoic acid receptor beta (Homo sapiens) (UniProt P10826); experiment: Selectivity interaction (Reporter gene assay) EUB0000565a RARB; details: screened at recom. conc., Selectivity number of off-targets 0.0, Selectivity number of targets 19.0, Source Knowledge inhouse
Sequence of Retinoic acid receptor beta (Homo sapiens) (P10826 whole entry): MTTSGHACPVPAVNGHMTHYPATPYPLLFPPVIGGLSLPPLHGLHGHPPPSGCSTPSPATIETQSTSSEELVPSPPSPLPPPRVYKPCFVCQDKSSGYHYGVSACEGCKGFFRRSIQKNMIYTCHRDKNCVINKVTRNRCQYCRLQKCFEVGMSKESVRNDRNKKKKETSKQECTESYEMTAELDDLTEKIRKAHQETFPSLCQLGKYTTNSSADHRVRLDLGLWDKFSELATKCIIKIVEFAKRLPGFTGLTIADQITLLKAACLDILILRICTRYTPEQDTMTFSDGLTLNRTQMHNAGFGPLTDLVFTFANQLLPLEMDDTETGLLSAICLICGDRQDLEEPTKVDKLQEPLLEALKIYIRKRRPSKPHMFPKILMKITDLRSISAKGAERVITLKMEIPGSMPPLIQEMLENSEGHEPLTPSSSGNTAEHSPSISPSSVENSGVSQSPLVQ

[17] = molecular target: T1, Hepatocyte nuclear factor 4-alpha (Homo sapiens); experiment: Selectivity interaction (Reporter gene assay) EUB0000565a HNF4A
[18] = molecular target: T4, Alpha trans-inducing protein (Human alphaherpesvirus 1); experiment: Selectivity interaction (Reporter gene assay) EUB0000565a UL48
[19] = molecular target: Nuclear receptor subfamily 2 group E member 1 (Homo sapiens) (UniProt Q9Y466); experiment: Selectivity interaction (Reporter gene assay) EUB0000565a NR2E1
[20] = molecular target: Steroidogenic factor 1 (Homo sapiens) (UniProt Q13285); experiment: Selectivity interaction (Reporter gene assay) EUB0000565a NR5A1
[21] = molecular target: T2, Retinoic acid receptor RXR-alpha (Homo sapiens); experiment: Selectivity interaction (Reporter gene assay) EUB0000565a RXRA; details: reference bexarotene 1 uM, Selectivity number of off-targets 0.0, Selectivity number of targets 1.0, Source Knowledge inhouse
[22] = molecular target: Nuclear receptor subfamily 4immunitygroup A member 1 (Homo sapiens) (UniProt P22736); experiment: Selectivity interaction (Reporter gene assay) EUB0000565a NR4A1
[23] = molecular target: Nuclear receptor subfamily 4immunitygroup A member 1 (Homo sapiens) (UniProt P22736); experiment: Selectivity interaction (Reporter gene assay) EUB0000555a NR4A1
[24] = molecular target: Nuclear receptor subfamily 2 group E member 1 (Homo sapiens) (UniProt Q9Y466); experiment: Selectivity interaction (Reporter gene assay) EUB0000555a NR2E1
[25] = molecular target: T3, Nuclear receptor subfamily 2 group C member 1 (Homo sapiens); experiment: Selectivity interaction (Reporter gene assay) EUB0000555a NR2C1
[26] = molecular target: T1, Hepatocyte nuclear factor 4-alpha (Homo sapiens); experiment: Selectivity interaction (Reporter gene assay) EUB0000555a HNF4A
[27] = molecular target: T2, Retinoic acid receptor RXR-alpha (Homo sapiens); experiment: Selectivity interaction (Reporter gene assay) EUB0000555a RXRA
[28] = molecular target: Steroidogenic factor 1 (Homo sapiens) (UniProt Q13285); experiment: Selectivity interaction (Reporter gene assay) EUB0000555a NR5A1
[29] = molecular target: T4, Alpha trans-inducing protein (Human alphaherpesvirus 1); experiment: Selectivity interaction (Reporter gene assay) EUB0000555a UL48
[30] = molecular target: Nuclear receptor subfamily 2 group E member 1 (Homo sapiens) (UniProt Q9Y466); experiment: Selectivity interaction (Reporter gene assay) EUB0000568a NR2E1; details: screened at recom. conc., Selectivity number of off-targets 2.0, Selectivity number of targets 5.0, Source Knowledge inhouse
[31] = molecular target: T4, Alpha trans-inducing protein (Human alphaherpesvirus 1); experiment: Selectivity interaction (Reporter gene assay) EUB0000568a UL48
[32] = molecular target: Steroidogenic factor 1 (Homo sapiens) (UniProt Q13285); experiment: Selectivity interaction (Reporter gene assay) EUB0000568a NR5A1
[33] = molecular target: T2, Retinoic acid receptor RXR-alpha (Homo sapiens); experiment: Selectivity interaction (Reporter gene assay) EUB0000568a RXRA; details: reference bexarotene 1 uM, Selectivity number of off-targets 0.0, Selectivity number of targets 1.0, Source Knowledge inhouse
[34] = molecular target: T1, Hepatocyte nuclear factor 4-alpha (Homo sapiens); experiment: Selectivity interaction (Reporter gene assay) EUB0000568a HNF4A
[35] = molecular target: T3, Nuclear receptor subfamily 2 group C member 1 (Homo sapiens); experiment: Selectivity interaction (Reporter gene assay) EUB0000568a NR2C1; details: screened at recom. conc., Selectivity number of off-targets 2.0, Selectivity number of targets 5.0, Source Knowledge inhouse
[36] = molecular target: Nuclear receptor subfamily 4immunitygroup A member 1 (Homo sapiens) (UniProt P22736); experiment: Selectivity interaction (Reporter gene assay) EUB0000568a NR4A1

CCOC(=O)c1ccc(C#Cc2ccc3c(c2)C(C)(C)CCS3)nc1
Remaining activity [1]: 0.921
Relative activation [2]: 0.694%
Remaining activity [3]: 0.92
Remaining activity [4]: 0.803
Remaining activity [5]: 0.703
Remaining activity [6]: 0.9
P-value [7]: 0.00141

CC1(C)CCC(C)(C)c2cc(NC(=O)c3ccc(C(=O)O)cc3)ccc21
P-value [8]: 2.26e-06
Remaining activity [9]: 0.902
Fold activation [10]: 0.997
Relative activation [11]: 0.52%
Remaining activity [12]: 0.763
Remaining activity [13]: 0.903
Fold activation [14]: 1.31

CC1(C)C(=O)C(C)(C)c2cc(C(=O)Nc3ccc(C(=O)O)cc3)ccc21
Fold activation [15]: 1
Fold activation [16]: 13.5
Remaining activity [17]: 0.954
P-value [18]: 0.000922
Remaining activity [19]: 0.923
Remaining activity [20]: 0.944
Relative activation [21]: 0.48%
Remaining activity [22]: 0.925

N[C@@H](Cc1cc(I)c(Oc2ccc(O)c(I)c2)c(I)c1)C(=O)O
Remaining activity [23]: 0.804
Fold activation [24]: 1.03
Remaining activity [25]: 0.695
Remaining activity [26]: 0.559
Relative activation [27]: 0.715%
Remaining activity [28]: 0.79
P-value [29]: 8.08e-06

O=C(O)c1ccc2cc(-c3ccc(O)c(C45CC6CC(CC(C6)C4)C5)c3)ccc2c1
Fold activation [30]: 2.03
P-value [31]: 0.0191
Fold activation [32]: 1.34
Relative activation [33]: 0.61%
Remaining activity [34]: 0.803
Fold activation [35]: 1.5
Fold activation [36]: 1.24
